Results on two molecules are retold here after patent US9326511B2, “Methods of inhibiting microbial biofilms” (priority 2008, dated 2016).

The subject of data set [1] is S. aureus SH1000 stationary phase cultures. As to the kind of experiment: Time-kill against stationary phase cultures. To be noted: early, mid and late stationary phase (24, 48, 72 hours), 10^8 bacteria/mL in spent medium. Format: cell-based, Staphylococcus aureus. On the procedure:
The anti-staphylococcal activities of Compound 10, Compound 12 and a range of comparator agents against stationary phase cultures of Staphylococcus aureus were studied using standard time-kill methodology (Oliva et al., 2003, Hobbs et al., 2008). A growth curve was constructed to identify when SH1000 cultures enter and leave stationary phase. 50 mL of Mueller-Hinton broth (MHB) was inoculated with 500 μL of Staphylococcus aureus SH1000 overnight culture and was maintained at 37° C. with agitation for 8 days. The culture turbidity at OD600 nm was measured at regular intervals using a Jenway 6300 spectrophotometer with a 1 cm light path (Jenway, Essex, UK). Staphylococcus aureus SH1000 cultures were grown to early, mid and late stationary phase at 37° C. by incubation for 24, 48 and 72 hours respectively. Cultures were centrifuged, the supernatant was removed, and then a portion of the cell pellet was resuspended in the counterpart supernatant to an OD600 nm of 0.2 (10^8 bacteria/mL). A time-kill assay was then performed on these stationary phase suspensions to study the effects of antimicrobial agents on bacterial cell viability. An untreated culture served as the negative control. The experiments were undertaken in triplicate. […]

The test system of data set [2] is normal human dermal fibroblasts (NHDF). As to the kind of experiment: Toxicity against human skin cells, MTT-assay. Format: cell-based. The conditions noted are these: 5 min, 1 h, 4 h incubation, 0.01-10 μM, then 24 h in the dark. Here is the method: NHDF were incubated with different concentrations of Compound 10 for 5 min, 1 h and 4 h (0 μM, 0.01 μM, 0.1 μM, 1.0 μM, 10 μM). Cells were then incubated for 24 h in the dark. Toxicity was tested by standard MTT-assay. Cell viability was normalised to one, which means, the values of control cells were normalised to one. Grey dotted line: 5 min incubation; black dotted: 1 h incubation; black line: 4 h incubation; (n=3, mean±SD).
(§1) Test compounds were screened for toxicity against cultured human skin cells using normal human epidermal keratinocytes (NHEK) and normal human dermal fibroblasts (NHDF), purchased from CellSystems Biotechnologie GmbH, Germany.
(§2) The NHEK and NHDF cells were used between passages 3 and 10. The cells were seeded with 7.5 and/or 15×10^4 cells/well (microtitre plate) and were allowed to attach overnight in an incubator (37° C., 5% CO2). After incubation with different concentrations of the selected photosensitisers for various times, the cells were incubated for 24 hours in the dark.
(§3) Toxicity was tested by standard MTT-assay (Mossman et al., 1983 J. Immunological Methods 65: 55-63). MTT is an indicator of metabolically active cells. Dependent on enzyme activity in mitochondria a colour reaction can be visualised, which can be measured by ELISA reader (540 nm). […]

Data set [3] deals with S. aureus SH1000 biofilms. As to the kind of experiment: Biofilm MIC and minimum biofilm eradication concentration, Calgary Biofilm Device. Format: cell-based, Staphylococcus aureus. The conditions noted are these: Staphylococcus aureus, SH1000BIOFILMS, biofilm MIC, read-out: bMIC. On the procedure: Methods: MICs were determined for planktonic cultures by broth microdilution according to British Society for Antimicrobial Chemotherapy (BSAC) guidelines. Biofilm MICs (bMIC) and minimum biofilm eradication concentrations (MBECs) were determined using the Calgary biofilm device. The effect of Compound 10 on the viability of cold culture cells was determined by growing S. aureus SH1000 to early exponential phase at 37° C. and resuspending the cells in pre-chilled media, where they were maintained in the presence and absence of Compound 10 and control agents. The effect of Compound 10 on slow growing cells expressing the stringent response was also determined by growing cultures to early log phase and the stringent response induced by the addition of the isoleucyl-tRNA synthetase inhibitor mupirocin. Compound 10 and control agents were then added and samples recovered for viable cell determinations.
Biofilm MICs and minimum biofilm eradication concentrations (MBEC) were determined in the Calgary Biofilm Device (Nunc Inc, Roskilde, Denmark) as described by Miller et al., 2005. This involves the following steps. Aliquots (200 μL) of exponential phase cultures of strain SH1000 were added to each well of a 96-well microtitre tray. The lid assembly, which has 96 polystyrene pegs corresponding to each well, was then replaced and the system incubated for 24 hours at 37° C. on a rocking platform. Following this a biofilm of approximately 10^7 cfu matured on each peg. The lid was then washed twice in phosphate-buffered saline (PBS) to remove residual planktonic growth and then placed into a microtitre tray with fresh media containing doubling dilutions of the test antibiotic. The system was then incubated for 24 hours at 37° C. on a rocking platform. The MIC was defined as the lowest concentration of antibiotic completely inhibiting visible growth after this incubation. After the MIC was recorded, the lid assembly was again washed twice in PBS to remove planktonic cells and remaining antibiotic and then placed into fresh drug-free media. The system was incubated for a further 24 hours and the MBEC was defined as the lowest concentration of antibiotic completely inhibiting the re-establishment of planktonic growth.

Data set [4] has as its system range of S. aureus strains including MSSA, healthcare-associated and community-associated MRSA. The conditions noted are these: previously shown (Love et al. 2008); cited from earlier work.
The subject of data set [5] is normal human epidermal keratinocytes (NHEK). As to the kind of experiment: Toxicity against human skin cells, MTT-assay. Format: cell-based. The conditions noted are these: 5 min, 1 h, 4 h incubation, 0.01-10 μM, then 24 h in the dark. Here is the method: NHEK were incubated with different concentrations of Compound 10 for 5 min, 1 h and 4 h (0 μM, 0.01 μM, 0.1 μM, 1.0 μM, 10 μM). Cells were then incubated for 24 h in the dark. Toxicity was tested by standard MTT-assay. Cell viability was normalised to one, which means, the values of control cells were normalised to one. Red dotted line: 5 min incubation; black dotted: 1 h incubation; blue dotted: 4 h incubation only; (n=3, mean±SD).
as §1, §2, §3
In general terms: Tetrazolium assays rely on reduction of a dye to a coloured formazan, in cell work by metabolically active cells.

[6] abbreviates: 24 h, S. aureus SH1000, Calgary Biofilm Device, 24 hours (Table 6).

The structures appear in SMILES notation. Read-outs that look alike come from different tables or passages of the source.

Usually MIC50 stands for the lowest concentration that inhibits either 50% of growth or 50% of the strains tested, depending on the study. Consider `C[N+](C)(C)CCCOc1ccc(-c2c3nc(cc4ccc([nH]4)c(-c4ccc(OCCC[N+](C)(C)C)cc4)c4nc(cc5ccc2[nH]5)C=C4)C=C3)cc1.[Cl-].[Cl-]` [Compound 10, 5,15-bis-[4-(3-Trimethylammonio-propyloxy)-phenyl]-porphyrin dichloride], for which the “bactericidal activity in time-kill (in words)” value in data set [1] is on record as “retained potent bactericidal activity”. The “Innate toxicity (cell viability, MTT)” value in data set [2] and in data set [5] was “does not demonstrate an innate toxicity” each time. The MIC in data set [3] (setting [6]) came out at 1 µg/mL; in data set [3] (S. aureus SH1000, Calgary device (Example H)) it was 1 µg/mL. For the same molecule, the MBC50 in data set [4] was 1 µg/mL. The MIC50 in data set [4] was 1 µg/mL.
Regarding `C[N+](C)(C)CCCOc1cccc(-c2c3nc(cc4ccc([nH]4)c(-c4cccc(OCCC[N+](C)(C)C)c4)c4nc(cc5ccc2[nH]5)C=C4)C=C3)c1.[Cl-].[Cl-]` [Compound 12, 5,15-bis-[3-(3-Trimethylammonio-propyloxy)-phenyl]-porphyrin dichloride], the “bactericidal activity in time-kill (in words)” value in data set [1] is listed as “retained potent bactericidal activity”. In addition, the MIC in data set [3] (setting [6]) came to 1 µg/mL.
